Holding throughout (assay type): cell-based, human
In data set [1] the test system is 5i-hPSC. In words: Medium component screen and PD dose response on OCT4/SOX2 pluripotent phenotype, feeder-free adherent and suspension. On the procedure:
For intracellular staining, dissociated cells were fixed with 4% paraformadehyde (Electron Microscopy Sciences) for 10 minutes and permeabilized with 0.1% Triton™ X-100 (Sigma-Aldrich). Cells were then stained with the primary antibody (OCT4, BD Biosciences; SOX2, R&D; FOXA2, Abnova; cTNT, Thermo Fisher Scientific; TUBB3, Cell Signaling; PDX1, R&D; NKX6.1, DSHB) for 25 minutes followed by the secondary antibody for 25 minutes at 4° C. Stained cells were analyzed on a FACSCanto™ II (BD) or FACS Fortessa™ (BD) flow cytometer.
Statistical analysis was performed using the JMP software (SAS). Parametric tests were used for qpcr, doubling time, and maximum density experiments, with the Student's T-test used for 2 treatment experiments and Tukey's HSD test used for experiments with 3 or more treatments. A non-parametric test (Kruskal-Wallis) was used for colony formation experiments since this assay was developed specifically for this study. […] The linear regression model was developed in Excel (Microsoft®).
To test this hypothesis, a 96 well plate platform was designed to screen the effects of medium components on 5i-hPSC pluripotency in suspension cultures and in feeder-free adherent cultures (FIG. 8A). To examine the effects of adherent culture on pluripotency, a Geltrex™ coating was used to obtain an adherent culture condition in the absence of a feeder layer. […]

Data set [2] relates to PSC (HES2). In words: Orbital shaker suspension culture of PSC aggregates with dextran sulfate. As to conditions: for aggregate control properties in PSC: data not shown. On the procedure:
In brief, HES2 were cultured on Geltrex™ LDEV-Free Reduced Growth Factor Basement Membrane Matrix (Thermo Fisher Scientific, 1:50 dilution in DMEM) coated plates in Nutristem® hESC XF Culture Medium (Biological Industries, “NS”) or E8 Medium (Thermo Fisher Scientific), supplemented with 1× Penicillin-Streptomycin (Thermo Fisher Scientific). Plates were coated with Geltrex™ for 30 minutes at 37° C. Cells were passaged 1:24 every 6 days by dissociation with TrypLE™ Express (Thermo Fisher Scientific) at 37° C. for 4-5 minutes. All cell line stocks were confirmed negative for mycoplasma contamination. Conversion to a “naïve” hPSC state was performed as described previously^35. Dextran sulfate compounds (DS, Sigma) were prepared by dilution in deionized water at a stock concentration of 100 mg/mL followed by filter sterilization.
(§1) Six well culture plates were pre-coated with 5% Pluronic F-68® (Thermo Fisher Scientific) for 30 minutes at 37° C. or overnight at 4° C. Dissociation of PSC to single cells was carried out by TrypLE™ Express (Thermo Fisher Scientific) treatment for 5 minutes at room temperature. Single cells were seeded into the Pluronic F-68® coated 6-well plates that were then placed on an orbital shaker with 10 μM Y-27632 (Reagents Direct) in normoxic (21% 02) conditions. Cells were seeded at densities of 2×10^5 cells/mL unless otherwise noted. Medium was exchanged by angling the plate at a 45° angle and allowing aggregates to settle onto the bottom edge. Two days after seeding, half of the growth medium was removed and replaced each day. Cells were harvested at the end of culture by dissociation with a 5 minute TrypLE™ treatment at 37° C. and cell counts were performed by Trypan Blue exclusion (Thermo Fisher Scientific). Bioreactor experiments were conducted following manufacturer instructions for operating the Ambr™-24 bioreactor system (Sartorius). Cell dissociation and medium exchange were performed as described above. Bioreactors were operated at 450 rpm and seeded with 4×10^5 cells/mL unless otherwise noted. Aggregates were analyzed using the Mastersizer™ 3000 particle analyzer (Malvern) according to manufacturer's instructions. Unless otherwise noted, the 560 μm aperture was used for analysis. Aggregates were dissociated and seeded into adherent conditions after 3 passages in suspension with DS. Directed differentiation into all three germ layers was performed as described previously for endoderm^40, mesoderm^41, and ectoderm^42 lineages. G-Band karyotyping was performed by WiCell.
Statistical analysis was performed in Excel software (Microsoft®). […] Coefficient of variation was calculated by estimating the volume of each aggregate from its diameter, calculating the standard deviation of each treatment, and normalizing to the mean. […]

For data set [3], the system named is PSC (HES2). Put plainly: Stirred tank bioreactor suspension culture of PSC with dextran sulfate. The following applies: stirred tank bioreactors seeded with DS, 3 passages. How it is done: as §1, with “Bioreactors were operated at 450 rpm and seeded with 4×10^5 cells/mL unless otherwise noted.” left out, “Unless otherwise noted, the 560 μm aperture was used for analysis. Aggregates were dissociated and seeded into adherent conditions after 3 passages in suspension with DS. Directed differentiation into all three germ layers was performed as described previously for endoderm^40, mesoderm^41, and ectoderm^42 lineages. G-Band karyotyping was performed by WiCell.” left out
Apoptosis analysis was conducted using Annexin V staining. […] Cells were analyzed on a FACS Canto™ II (BD) or FACS Fortessa™ (BD) flow cytometer. […]

Data set [4] has as its system PSC. In words: Karyotype and germ layer differentiation of DS treated PSC.
Description: Six well culture plates were pre-coated with 5% Pluronic F-68® (Thermo Fisher Scientific) for 30 minutes at 37° C. or overnight at 4° C. Dissociation of PSC to single cells was carried out by TrypLE™ Express (Thermo Fisher Scientific) treatment for 5 minutes at room temperature. […] Cells were seeded at densities of 2×10^5 cells/mL unless otherwise noted. Medium was exchanged by angling the plate at a 45° angle and allowing aggregates to settle onto the bottom edge. Two days after seeding, half of the growth medium was removed and replaced each day. Cells were harvested at the end of culture by dissociation with a 5 minute TrypLE™ treatment at 37° C. and cell counts were performed by Trypan Blue exclusion (Thermo Fisher Scientific). […] Aggregates were dissociated and seeded into adherent conditions after 3 passages in suspension with DS. Directed differentiation into all three germ layers was performed as described previously for endoderm^40, mesoderm^41, and ectoderm^42 lineages. G-Band karyotyping was performed by WiCell.
Data set [5] has as its system H9 hPSC. In words: Aggregation control by DS in conventional and naive conditions. As to conditions: conventional and naive pluripotent states.
Data set [6] deals with HES2 and H9 cell lines. In words: 4i suspension culture supplemented with dextran sulfate. The following applies: dextran sulfate at seeding. How it is done: HES2 and H9 hPSC were cultured in adherent conditions in 5i medium for >5 passages. Cells were dissociated with TrypLE™ as described previously and seeded as single cells into 4i medium in the presence of ROCK inhibitor into orbital shaker suspension culture plates (pre-treated with 5% Pluronic® F-68) in the presence of dextran sulfate at seeding. Half of the medium volume was exchanged every day starting on the second day by tilting the plate at a 45 degree angle and allowing cells to settle before removing half of the medium and replenishing it with fresh 4i medium without dextran sulfate.

For the molecule `O=C(NOC[C@H](O)CO)c1ccc(F)c(F)c1Nc1ccc(I)cc1F` [PD, N-[(2R)-2,3-dihydroxypropoxy]-3,4-difluoro-2-[(2-fluoro-4-iodophenyl)amino]-benzamide], in data set [1] (feeder-free adherent and suspension), the “correlation of PD level to pluripotent phenotype” value is listed as “negatively correlated”. Moreover, the “linear regression coefficient of PD level on OCT4/SOX2 expression” value in data set [1] (model with growth format and interaction, 56 observations) was −27.0584.
For the molecule heparin, the “aggregate control properties in PSC” value in data set [2] is listed as “displayed aggregate control properties”.
For the molecule dextran sulfate [DS], the “homogeneity of aggregate sizes” value in data set [2] (orbital shaker, 4 days) was “reduced standard deviations and lower coefficients of variation of aggregate volume”. Also, the aggregate diameter result in data set [2] (orbital shaker, DS of 4, 15 and 40 kDa at varied concentration) is reported as “significantly reduced diameters in a dose-dependent fashion”. For the same molecule, the “expression of pluripotency markers Oct4 and Sox2” value in data set [3] is given as above 85%. Besides, the karyotype result in data set [4] (9 passages (5 adherent, 4 suspension)) is listed as “retained a normal karyotype”. Also, the “differentiation to three germ layers” value in data set [4] (after 9 passages with DS) is given as “maintained the ability to differentiate to cell types from all three germ layers”. For the same molecule, the control of aggregation entry in data set [5] is given as “able to control H9 hPSC aggregation in both pluripotent states”. In addition, in data set [6], the “mean aggregate size and variance relative to untreated conditions” value is reported as “both observed to decrease”.
pentosan polysulfate: the “aggregate control properties in PSC” value in data set [2] is reported as “displayed aggregate control properties”.

The record behind these values is US20190316081A1, “MEDIA AND METHODS FOR EXPANSION OF PLURIPOTENT STEM CELLS” (priority 2018, published 2019).
